Columns and labels:
[1] = test system: BAF155 me2a; experiment: BAF155 me2a level in BT474 cells, western blot; assay type: cell-based; conditions: 0.5 μM, after 48 h
Source text: FIGS. 7A-7F. […] Cell lysates were collected and CARM1, methyl-BAF155, total BAF155, methyl-PABP1, and total PABP1 levels were detected by Western blot. […] Cell lysates were collected and CARM1, methyl-BAF155, total BAF155 levels were detected by Western blot. […] Cell proliferation rate normalized to day 0 was plotted. […] Migrated cells were stained with 1% crystal violet and the percentage of migrated cells were plotted. Data mean±s.d. ***. P≤0.001.
Western Blot Assay. Cells were harvested and washed with Dulbecco's phosphate-buffered saline (PBS), then lysed with 1×RIPA lysis buffer (50 mM Tris pH 7.5, 150 mM NaCl, 1% NP-40, 0.5% sodium deoxycholate, and 0.1% sodium dodecyl sulfate) supplemented with 1 mM phenylmethylsulfonyl fluoride, 10 μg/mL aprotinin, 1 μM leupeptin, and 10 μg/mL pepstatin on ice for 20 min. The supernatant was collected after spinning down at 15000 RPM at 4 degrees Celsius for 10 min. The concentration of whole lysates was quantified using a Bradford assay. 50-75 μg of cell lysates was boiled in 4× Laemmli Loading Dye and boiled at 100 degrees Celsius for 10 min. 25 μg were run in 8% SDS-PAGE gels and transferred to nitrocellulose membranes. Blots were blocked in 5% skim milk in PBST [PBS and 0.1% Tween 20] for 45 min, then incubated with primary antibodies at 4 degrees Celsius overnight. […]

[2] = test system: MCF7 cells; experiment: Cell proliferation assay, MCF7 cells; assay type: cell-based, human; conditions: 0.5 μM

`CNCCN1CCC(c2cc(CN(C)C(=O)c3cccc(Oc4ccc(OCC(=O)N5CCC(CN6CCC(CN7CCN(CC(=O)N[C@H](C(=O)N8C[C@H](O)C[C@H]8C(=O)N[C@@H](C)c8ccc(-c9scnc9C)cc8)C(C)(C)C)CC7)CC6)CC5)cc4)c3)ccn2)CC1` [Compound 3b, (2S,4R)-1-((S)-3,3-dimethyl-2-(2-(4-((1-((1-(2-(4-(3-(methyl((2-(1-(2-(methylamino)ethyl)piperidin-4-yl)pyridin-4-yl)methyl)carbamoyl)phenoxy)phenoxy)acetyl)piperidin-4-yl)methyl)piperidin-4-yl)methyl)piperazin-1-yl)acetamido)butanoyl)-4-hydroxy-N—((S)-1-(4-(4-methylthiazol-5-yl)phenyl)ethyl)pyrrolidine-2-carboxamide] was tested, and the “BAF155 me2a level” value [1] was “decrease of BAF155 me2a level was observed” and the Cell proliferation [2] was “not to inhibit cell proliferation”.

— patent US20250222120A1, “SYNTHESIS OF NOVEL SMALL MOLECULE CARM1 DEGRADERS, COMPOUNDS FORMED THEREBY, AND PHARMACEUTICAL COMPOSITIONS CONTAINING THEM” (Wisconsin Alumni Research Foundation, priority 2024, published 2025)
